According to patent publication US10925865B2, “Charged ion channel blockers and methods for use” (Nocion Therapeutics, Inc., priority 2019, dated 2021):

Experiments:
NaV1.7 [1] = biological target: T1, NaV1.7 (Homo sapiens, UniProt Q15858); test: Nav1.7 whole cell patch clamp, internal block (intracellular inhibition); format: cell-based; conditions: test concentration 10 μM, compound in internal solution, 5 Hz stimulation
T1 construct: expressed in transfected cells; host or cells: Tetracycline-inducible cell line kept under hygromycin and blasticidin selection
T1 sequence (Q15858 whole entry): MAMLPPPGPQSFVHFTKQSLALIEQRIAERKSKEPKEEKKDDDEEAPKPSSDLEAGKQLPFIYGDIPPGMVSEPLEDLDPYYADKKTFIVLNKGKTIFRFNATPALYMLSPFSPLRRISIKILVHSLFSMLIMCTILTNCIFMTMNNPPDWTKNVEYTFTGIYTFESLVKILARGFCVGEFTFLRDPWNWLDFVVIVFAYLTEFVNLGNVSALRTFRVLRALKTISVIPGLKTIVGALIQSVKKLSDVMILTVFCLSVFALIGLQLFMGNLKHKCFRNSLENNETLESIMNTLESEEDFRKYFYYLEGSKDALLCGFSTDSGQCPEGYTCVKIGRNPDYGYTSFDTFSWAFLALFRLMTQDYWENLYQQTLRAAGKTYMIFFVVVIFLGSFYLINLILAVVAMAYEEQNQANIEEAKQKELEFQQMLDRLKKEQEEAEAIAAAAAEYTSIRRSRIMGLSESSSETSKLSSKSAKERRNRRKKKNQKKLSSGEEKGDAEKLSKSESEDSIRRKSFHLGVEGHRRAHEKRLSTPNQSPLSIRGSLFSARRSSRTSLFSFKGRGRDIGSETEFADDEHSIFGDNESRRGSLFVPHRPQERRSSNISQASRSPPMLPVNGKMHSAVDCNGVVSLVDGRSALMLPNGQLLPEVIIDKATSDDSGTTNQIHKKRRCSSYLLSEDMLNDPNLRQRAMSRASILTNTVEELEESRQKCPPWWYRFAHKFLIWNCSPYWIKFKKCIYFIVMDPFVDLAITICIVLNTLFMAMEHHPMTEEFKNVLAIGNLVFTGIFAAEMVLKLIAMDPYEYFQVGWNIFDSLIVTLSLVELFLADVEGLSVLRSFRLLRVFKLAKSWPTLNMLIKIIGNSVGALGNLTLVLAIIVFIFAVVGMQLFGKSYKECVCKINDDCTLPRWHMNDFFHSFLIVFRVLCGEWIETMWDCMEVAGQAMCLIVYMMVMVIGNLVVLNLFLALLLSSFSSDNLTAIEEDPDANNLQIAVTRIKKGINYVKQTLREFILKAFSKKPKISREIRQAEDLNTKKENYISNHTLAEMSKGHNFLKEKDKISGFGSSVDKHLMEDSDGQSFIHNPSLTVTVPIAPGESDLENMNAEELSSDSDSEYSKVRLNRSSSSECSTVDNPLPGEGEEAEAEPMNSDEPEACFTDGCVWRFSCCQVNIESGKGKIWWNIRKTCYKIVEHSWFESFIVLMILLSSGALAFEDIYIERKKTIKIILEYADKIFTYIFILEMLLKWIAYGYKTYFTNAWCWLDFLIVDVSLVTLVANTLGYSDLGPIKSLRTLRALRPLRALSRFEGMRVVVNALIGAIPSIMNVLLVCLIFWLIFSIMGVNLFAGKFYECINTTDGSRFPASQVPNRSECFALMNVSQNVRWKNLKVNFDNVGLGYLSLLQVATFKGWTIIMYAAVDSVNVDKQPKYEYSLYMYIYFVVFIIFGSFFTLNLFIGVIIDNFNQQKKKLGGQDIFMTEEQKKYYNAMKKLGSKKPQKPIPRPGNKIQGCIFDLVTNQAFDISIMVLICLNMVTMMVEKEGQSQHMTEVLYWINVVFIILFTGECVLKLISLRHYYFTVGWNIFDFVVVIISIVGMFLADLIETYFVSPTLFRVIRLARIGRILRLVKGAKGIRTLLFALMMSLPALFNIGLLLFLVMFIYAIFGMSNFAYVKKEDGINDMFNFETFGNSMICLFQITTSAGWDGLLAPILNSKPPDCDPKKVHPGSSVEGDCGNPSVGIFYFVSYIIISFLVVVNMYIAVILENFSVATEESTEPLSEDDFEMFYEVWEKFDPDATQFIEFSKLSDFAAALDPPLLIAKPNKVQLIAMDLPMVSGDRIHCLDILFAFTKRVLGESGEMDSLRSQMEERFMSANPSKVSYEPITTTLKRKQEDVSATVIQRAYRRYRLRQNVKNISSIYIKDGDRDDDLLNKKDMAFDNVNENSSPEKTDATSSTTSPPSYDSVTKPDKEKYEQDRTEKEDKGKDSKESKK
Procedure: (§1) The compounds were synthesized according to the described method and tested for the ability to inhibit voltage-gated sodium channels.
(§2) NaV1.7 was expressed upon induction with tetracycline. Cells were cultured in DMEM containing 10% dialyzed Fetal Bovine Serum (VWR, Radnor, Pa.), 1% Glutamax (VWR, Radnor, Pa.), 1% Penicillin-Streptomycin (VWR, Radnor, Pa.), 100 mg/L Hygromycin (Thermo Fisher Scientific, Waltham, Mass. and 5 mg/L Blasticidin (Alfa Aesar, Haverhill, Mass.). Cells were grown and maintained at 37° C. in a humidified environment containing 10% CO2 in air. Cells were detached from the culture flask for passage and harvested using 0.05% Trypsin-EDTA (Thermo Fisher Scientific, Waltham, Mass.). To induce NaV1.7, cells were induced with tetracycline ([…], IBI Scientific, Peosta, Iowa) the day before recording and plated onto 24-well plates. Cells were washed with DPBS (VWR, Radnor, Pa.), trypsinized and then triturated five times in 10 mL of growth media to break apart cell aggregates. For one 24-well plate, 2 mL of cell suspension was mixed with 23 mL of fresh growth media and […] tetracycline added. 1 ml of mixed media with cells was then added to each well of a 24-well plate, with a 12 mm coverslip already placed in the bottom of the well. Cells were then incubated in 37° C. and 10% CO2 overnight.
(§3) The intracellular solution contained the following (in mM) CsCl 135, NaCl 10, EGTA 10, HEPES 10, MgCl2 2, adjusted to pH 7.2 with CsOH. The external solution was a normal Ringer solution containing (in mM) NaCl 155, HEPES 10, glucose 10, KCl 3.5, CaCl2 1.5, MgCl2 1 adjusted to pH 7.4 with NaOH. CsCl is from Alfa Aesar, Haverhill, Mass. All other chemicals are from Sigma-Aldrich, St. Louis, Mo. In order to test the degree of internal block by test compounds the compounds were dissolved in internal solution at the indicated test concentration. […] In order to test the degree of external block by test compounds the compounds were dissolved in external solution at the indicated test concentration.
(§4) 18-24 hours after cells were induced with tetracycline, coverslips were placed into a chamber filled with Normal Ringer solution at room temperature and the chamber placed on a microscope. Pipettes were pulled from borosilicate glass on a P97 puller (Sutter Instrument, Novato, Calif.) and polished with a MF-830 Microforge (Narishige International USA, Inc., Amityville, N.Y.) to have a resistance of 1.5-2.5 MQ when filled with CsCl internal solution at room temperature. Healthy cells (those that are round and translucent with no visible blemishes) were chosen for seal formation. A seal was formed between the pipette and the cell, and a brief pulse of suction was used to “break in” and establish the whole-cell configuration. The membrane potential was held at −100 mV before the voltage protocol began. Only cells with series resistance between 1.5-5 MQ were retained for analysis. The voltage protocol was as follows: Cells were held at −100 mV for 12 ms followed by a hyperpolarizing step to −105 mV for 12 ms to monitor the leak. Cells were then stepped back to −100 mV for 40 ms. Cells were then depolarized to −20 mV for 10 ms and then returned to −100 mV for 26 ms (The FIGURE).
(§5) Once the recording was started, the voltage protocol was run at 30 second intervals for 5 minutes to get a stable baseline. […] Currents were recorded using PatchMaster software with Heka EPC10 (HEKA Electronics, Lambrecht, Germany). […]

NaV1.7 [2] = biological target: T1, NaV1.7; test: Nav1.7 whole cell patch clamp, external block (extracellular application); format: cell-based; conditions: test concentration 30 μM, compound in external solution for 5 minutes, 5 Hz stimulation
Procedure: as §1, §2, §3, §4, §5

[3] = tested on: artificial lipid membrane; test: PAMPA membrane permeability assay; format: in vitro ADME; conditions: pH 7.4 buffer, GIT lipid, 4 hours incubation
Procedure: The PAMPA assay (pION, Inc., Woburn Mass.) was used to determine the ability of compounds of the invention to cross an artificial lipid membrane by passive diffusion. Test compounds were dissolved in DMSO (10 mM) and diluted 200-fold in buffer (pION Inc., pH 7.4) to provide 50 uM stock solutions. Buffer (150 μL) was added to a UV blank plate and stock solutions (150 μL) were transferred to a UV reference plate. The blank and reference spectrum were read using a spectrophotometer. Stock solutions (200 μL) were added to the donor plate of the PAMPA sandwich plate and an accept plate painted with GIT lipid (pION Inc., 5 μL) was placed on top. Buffer (200 μL) was added to the acceptor plate and the PAMPA sandwich plate was incubated for 4 hours. Aliquots (150 μL) from the acceptor plate were added to a UV plate and read as acceptor spectrum. Aliquots (150 μL) of the donor solutions were added to a UV analysis plate and read as donor spectrum. The permeability coefficient of test compounds was calculated using PAMPA Explorer™ software (version 3.5.0.4) based on the AUC of the reference plate, the donor plate, and the acceptor plate.

SMILES | inhibition at 10 µM (NaV1.7 [1]) [%] | inhibition at 30 µM (NaV1.7 [2]) [%] | Papp at 4 h, 50 uM [3] [×10⁻⁶ cm/s]
Cc1cccc(C)c1NC(=O)C[n+]1cccc(-c2ccccc2)c1.[Br-] [1′A, 1-(2-((2,6-dimethylphenyl)amino)-2-oxoethyl)-3-phenylpyridin-1-ium bromide] | > 75 | < 45 | < 1
Cc1cccc(C)c1NC(=O)C[n+]1ccccc1-c1ccccc1.[Br-] [2′A, 1-(2-((2,6-dimethylphenyl)amino)-2-oxoethyl)-2-phenylpyridin-1-ium bromide] | > 75 | < 45 | < 1
CCc1ccc[n+](CC(=O)Nc2c(C)cccc2C)c1.[Br-] [3′A, 1-(2-((2,6-dimethylphenyl)amino)-2-oxoethyl)-3-ethylpyridin-1-ium bromide] | > 75 | < 45 | < 1
CCc1cccc[n+]1CC(=O)Nc1c(C)cccc1C.[Br-] [4′A, 1-(2-((2,6-dimethylphenyl)amino)-2-oxoethyl)-2-ethylpyridin-1-ium bromide] | > 75 | < 45 | < 1
CCOC(=O)c1ccc[n+](CC(=O)Nc2c(C)cccc2C)c1 [5′A, 1-(2-((2,6-dimethylphenyl)amino)-2-oxoethyl)-3-(ethoxycarbonyl)pyridin-1-ium bromide] | > 75 | < 45 | 
